From patent US20220169629A1, “PESTICIDALLY ACTIVE DIAZINE-AMIDE COMPOUNDS” (SYNGENTA CROP PROTECTION AG, priority 2019, published 2022)

How the values were obtained:
Assay type in all cases: in vivo
[1] = tested on: Plutella xylostella (diamond back moth); assay: Example B5: Plutella xylostella (diamond back moth), artificial diet, 24-well, eggs; settings: 192 h, application rate of 200 ppm, 8 days after infestation, read-out: control in at least one of the two categories (mortality or growth inhibition)
Method: Example B5: Plutella xylostella (Diamond Back Moth)
24-well microtiter plates with artificial diet were treated with aqueous test solutions prepared from 10′000 ppm DMSO stock solutions by pipetting. After drying, Plutella eggs were pipetted through a plastic stencil onto a gel blotting paper and the plate was closed with it. The samples were assessed for mortality and growth inhibition in comparison to untreated samples 8 days after infestation.

[2] = tested on: Euschistus heros (neotropical brown stink bug); assay: Example B2: Euschistus heros (neotropical brown stink bug), sprayed soybean leaves, N2 nymphs; settings: 120 h, application rate of 200 ppm, 5 days after infestation, N2 nymphs on soybean leaves, read-out: control in at least one of the two categories (mortality or growth inhibition)
Method: Example B2: Euschistus heros (Neotropical Brown Stink Bug)
Soybean leaves on agar in 24-well microtiter plates were sprayed with aqueous test solutions prepared from 10′000 ppm DMSO stock solutions. After drying the leaves were infested with N2 nymphs. The samples were assessed for mortality and growth inhibition in comparison to untreated samples 5 days after infestation.

[3] = tested on: Spodoptera littoralis (Egyptian cotton leaf worm); assay: Example B7: Spodoptera littoralis (Egyptian cotton leaf worm), sprayed cotton leaf discs, L1 larvae; settings: foliar, 72 h, application rate of 200 ppm, 3 days after infestation, L1 larvae on cotton leaf discs, read-out: control in at least one of the three categories (mortality, anti-feeding or growth inhibition)
Method: Example B7: Spodoptera littoralis (Egyptian Cotton Leaf Worm)
Cotton leaf discs were placed onto agar in 24-well microtiter plates and sprayed with aqueous test solutions prepared from 10′000 ppm DMSO stock solutions. After drying the leaf discs were infested with five L1 larvae. The samples were assessed for mortality, anti-feeding effect, and growth inhibition in comparison to untreated samples 3 days after infestation. Control of Spodoptera littoralis by a test sample is given when at least one of the categories mortality, anti-feedant effect, and growth inhibition is higher than the untreated sample.

[4] = tested on: Chilo suppressalis (striped rice stemborer); assay: Example B4: Chilo suppressalis (striped rice stemborer), artificial diet, L2 larvae; settings: 144 h, application rate of 200 ppm, 6 days after infestation, L2 larvae on artificial diet, read-out: control in at least one of the three categories (mortality, anti-feeding or growth inhibition)
Method: Example B4: Chilo suppressalis (Striped rice stemborer)
24-well microtiter plates with artificial diet were treated with aqueous test solutions prepared from 10′000 ppm DMSO stock solutions by pipetting. After drying, the plates were infested with L2 larvae (6-8 per well). The samples were assessed for mortality, anti-feeding effect, and growth inhibition in comparison to untreated samples 6 days after infestation. Control of Chilo suppressalis by a test sample is given when at least one of the categories mortality, anti-feedant effect, and growth inhibition is higher than the untreated sample.

[5] = tested on: Plutella xylostella (diamondback moth); assay: Example B10: Plutella xylostella (diamondback moth), 96-well artificial diet; settings: 216 h, application rate of 500 ppm, 9 days after infestation, eggs/L1 larvae
Method: Example B10: Plutella xylostella (Diamondback Moth)
96-well microtiter plates containing artificial diet were treated with aqueous test solutions, prepared from 10′000 ppm DMSO stock solutions, by a liquid handling robot. After drying, eggs (˜30 per well) were infested onto a netted lid which was suspended above the diet. The eggs hatch and L1 larvae move down to the diet. The samples were assessed for mortality 9 days after infestation.

[6] = tested on: Diabrotica balteata (corn root worm); assay: Example B1: Diabrotica balteata (corn root worm), sprayed maize sprouts, L2 larvae; settings: 96 h, application rate of 200 ppm, 4 days after infestation, L2 larvae on maize sprouts, read-out: control in at least one of the two categories (mortality or growth inhibition)
Method: Example B1: Diabrotica Balteata (Corn Root Worm)
Maize sprouts placed onto an agar layer in 24-well microtiter plates were treated with aqueous test solutions prepared from 10′000 ppm DMSO stock solutions by spraying. After drying, the plates were infested with L2 larvae (6 to 10 per well). The samples were assessed for mortality and growth inhibition in comparison to untreated samples 4 days after infestation.

CC(NC(=O)c1cc(OCC(F)F)cc(C(F)(F)F)c1)c1nccnc1-c1ncc(OCC(F)(F)F)cn1 (centres unmarked) [Compound P1, 3-(2,2-difluoroethoxy)-N-[1-[3-[5-(2,2,2-trifluoroethoxy)pyrimidin-2-yl]pyrazin-2-yl]ethyl]-5-(trifluoromethyl)benzamide]
≥ 80%: percent control (mortality or growth inhibition) at 200 ppm [1] | percent control (mortality or growth inhibition) at 200 ppm [2] | percent control (mortality, anti-feeding or growth inhibition) at 200 ppm [3] | control at 200 ppm [4]

CC(NC(=O)c1cc(OCC(F)(F)F)cc(C(F)(F)F)c1)c1nccnc1-c1ncc(OCC(F)(F)F)cn1 (centres unmarked) [Compound P5, 3-(2,2,2-trifluoroethoxy)-N-[1-[3-[5-(2,2,2-trifluoroethoxy)pyrimidin-2-yl]pyrazin-2-yl]ethyl]-5-(trifluoromethyl)benzamide]
≥ 80%: percent control (mortality or growth inhibition) at 200 ppm [1] | percent control (mortality or growth inhibition) at 200 ppm [2] | percent control (mortality, anti-feeding or growth inhibition) at 200 ppm [3] | control at 200 ppm [4]

CC(NC(=O)c1cc(OCC(F)(F)F)cc(C(F)(F)F)c1)c1nccnc1-c1ccc(OCC(F)F)cn1 (centres unmarked) [Compound P15, N-[1-[3-[5-(2,2-difluoroethoxy)-2-pyridyl]pyrazin-2-yl]ethyl]-3-(2,2,2-trifluoroethoxy)-5-(trifluoromethyl)benzamide]
≥ 80%: percent control (mortality or growth inhibition) at 200 ppm [1] | mortality at 500 ppm [5] | percent control (mortality or growth inhibition) at 200 ppm [6] | percent control (mortality, anti-feeding or growth inhibition) at 200 ppm [3] | control at 200 ppm [4]

CC(NC(=O)c1cc(Br)cc(C(F)(F)F)c1)c1nccnc1-c1ccc(OCC(F)F)cn1 (centres unmarked) [Compound P19, 3-bromo-N-[1-[3-[5-(2,2-difluoroethoxy)-2-pyridyl]pyrazin-2-yl]ethyl]-5-(trifluoromethyl)benzamide]
≥ 80%: percent control (mortality or growth inhibition) at 200 ppm [1] | mortality at 500 ppm [5] | percent control (mortality or growth inhibition) at 200 ppm [6] | percent control (mortality, anti-feeding or growth inhibition) at 200 ppm [3] | control at 200 ppm [4]

CC(NC(=O)c1cc(Cl)cc(C(F)(F)F)c1)c1nccnc1-c1ccc(OCC(F)(F)F)cn1 (centres unmarked) [Compound P21, 3-chloro-N-[1-[3-[5-(2,2,2-trifluoroethoxy)-2-pyridyl]pyrazin-2-yl]ethyl]-5-(trifluoromethyl)benzamide]
≥ 80%: percent control (mortality or growth inhibition) at 200 ppm [1] | mortality at 500 ppm [5] | percent control (mortality or growth inhibition) at 200 ppm [6] | percent control (mortality, anti-feeding or growth inhibition) at 200 ppm [3] | control at 200 ppm [4]

CC(NC(=O)c1cc(OCC(F)(F)F)cc(C(F)(F)F)c1)c1nccnc1-c1ccc(C#N)cn1 (centres unmarked) [Compound P25, N-[1-[3-(5-cyano-2-pyridyl)pyrazin-2-yl]ethyl]-3-(2,2,2-trifluoroethoxy)-5-(trifluoromethyl)benzamide]
≥ 80%: percent control (mortality or growth inhibition) at 200 ppm [1] | mortality at 500 ppm [5] | percent control (mortality or growth inhibition) at 200 ppm [6] | percent control (mortality, anti-feeding or growth inhibition) at 200 ppm [3] | control at 200 ppm [4]

CC(NC(=O)c1cc(SC(F)(F)F)cc(C(F)(F)F)c1)c1nccnc1-c1ncc(OCC(F)F)cn1 (centres unmarked) [Compound P29, N-[1-[3-[5-(2,2-difluoroethoxy)pyrimidin-2-yl]pyrazin-2-yl]ethyl]-3-(trifluoromethyl)-5-(trifluoromethylsulfanyl)benzamide]
≥ 80%: percent control (mortality or growth inhibition) at 200 ppm [1] | mortality at 500 ppm [5] | percent control (mortality or growth inhibition) at 200 ppm [6] | percent control (mortality, anti-feeding or growth inhibition) at 200 ppm [3] | control at 200 ppm [4]

CC(NC(=O)c1cc(OCC(F)(F)F)cc(C(F)(F)F)c1)c1nccnc1-c1ncc(OC(F)F)cn1 (centres unmarked) [Compound P30, N-[1-[3-[5-(difluoromethoxy)pyrimidin-2-yl]pyrazin-2-yl]ethyl]-3-(2,2,2-trifluoroethoxy)-5-(trifluoromethyl)benzamide]
≥ 80%: percent control (mortality or growth inhibition) at 200 ppm [1] | mortality at 500 ppm [5] | percent control (mortality or growth inhibition) at 200 ppm [6] | percent control (mortality, anti-feeding or growth inhibition) at 200 ppm [3] | control at 200 ppm [4]
